Data published in PMC9499324, “Glycyrrhizic Acid Derivatives Bearing Amino Acid Residues in the Carbohydrate Part as Dengue Virus E Protein Inhibitors: Synthesis and Antiviral Activity” (International Journal of Molecular Sciences, 2022).

Assays:
DENV2 [1] = test: DENV2-induced cytopathic effect (CPE) reduction screening in Vero E6 cells; format: cell-based, Dengue virus type 2; settings: for inhibition at 10 µM: Dengue virus
Description: (§1) In the antiviral screening assay, each tested GL conjugate at 10 μM was used to survey the anti-DENV activity in Vero E6 cells using cytopathic effect (CPE) and infectivity reduction assays as described in our prior report. In CPE and infectivity reduction assays, Vero E6 cells were infected by DENV2 at an MOI of 0.005 and simultaneously treated 10 μM of indicated GL conjugate for 96 h, and then photographed by microscope for examining the levels of DENV2-induced CPE in infected cells treated with or without GL conjugate. Meanwhile, the cells were further performed using immunofluorescence assay (IFA) with anti-DENV NS4B antibodies (GeneTex, Inc., Hsinchu, Taiwan) and anti-rabbit IgG antibodies conjugated with AF555 (ThermoFisher, Waltham, MA, USA) plus DAPI (4′,6-diamidino-2-phenylindole) nuclear staining. Finally, the DENV-2 infectivity was measured according to the ratio of DENV NS4B-positive cells to DAPI-stained cells in the well of mock-treated or treated cells, as described in [45, 59, 60].

DENV2 [2] = test: DENV2 infectivity inhibition (anti-NS4B immunofluorescence) in Vero E6 cells; format: cell-based, Dengue virus type 2; settings: for inhibition at 10 µM: Vero C1008, 10 μM compound, DENV2, Vero E6 cells, 96 h, read-out: Inhibition (%) at 10 μM (reduction of NS4B-positive cells); for Selectivity Index (CC50/ IC50): DENV2
Description: as §1, with “In the antiviral screening assay, each tested GL conjugate at 10 μM was used to survey the anti-DENV activity in Vero E6 cells using cytopathic effect (CPE) and infectivity reduction assays as described in our prior report.” left out, “[…],” for “Vero E6 cells were infected by DENV2 at an MOI of 0.005 and simultaneously treated 10 μM of indicated GL conjugate for 96 h,”

[3] = MTT cytotoxicity assay in Vero E6 cells; format: cell-based; settings: African green monkey
Description: (§2) Vero E6 cells and A549 cells (5 × 10^3 cells/well) were treated with the serial dilution of GL conjugates at 0, 0.1, 10, 20, and 50 μM for examining the in vitro cytotoxicity of tested compounds. After 96-h incubation at 37 °C, the cells were incubated with MTT (3-(4,5-Dimethylthiazol-2-yl)-2,5-Diphenyltetrazolium Bromide) solution for another 4 h incubation, mixed with DMSO for 15 min after the removal of media, and then measured the absorbance at 570 nm. The viability (%) of treated cells was quantified according to the reduced ability of MTT. Finally, the concentration for reducing 50% cell viability (the 50% cytotoxic concentration, CC50) was determined by regression analysis of the concentration–response survival curve.

[4] = MTT cytotoxicity assay in A549 cells; format: cell-based; settings: human
Description: as §2

DENV2 [5] = test: DENV2 infectivity inhibition (anti-NS4B immunofluorescence) in A549 cells; format: cell-based, Dengue virus type 2
DENV1 = DENV1 infectivity inhibition assay in Vero E6 cells; format: cell-based; settings: Dengue virus, DENV1, Vero C1008, read-out: IC50 in the DENV1 infectivity inhibition assay
Description: as §1
Supplemental Figure S25. Infectivity inhbition of DENV1 in Vero E6 cells by active GL conjugates. Cells were infected with DENV1 in the presence and absence of Compounds 3, 6, 11, and 21 at the concentrations of 0.1, 1, and 10 μM, respectively. Treated/infected Vero E6 cells were also analyzed using immunofluorescence staining with anti-DENV2 NS4B antibodies.
Residual infectivity was discovered by the ratio of DENV2 NS4B positive cells to total cells stained with DAPI, and relative inhibition activity was determined based on full infectivity with the subtraction of its residual infectivity.
(1 picture or pasted object on this page, not shown here)

DENV2 [6] = test: Time-of-addition/compound removal assay with DENV2 in Vero E6 cells; format: cell-based, Dengue virus type 2; settings: time-of-addition/removal, Vero E6 cells
Description: Figure 5 Time-of-addition and removal assay for analyzing antiviral action of compounds 3 (A), 6 (B), 11 (C), and 21 (D) in Vero E6 cells. In the attachment mode, cells were pre-cooled and incubated with fresh-prepared mixtures of active compounds with DENV2 at 4 °C for 1 h. After the removal of the mixtures, the cells were kept at 37 °C for 96 h (a cycle of viral replication) and then were performed by immunofluorescent assay plus DAPI staining. In entry and post-entry modes, cells were infected with DENV2 and treated with the compounds simultaneously (the entry stage) or 1-h post-infection (post-entry stage). After a 1 h incubation period, the virus/compound mixture was removed; the cell monolayer was washed with PBS and cultured for 96 h and then subjected to immunofluorescence staining and DAPI. Finally, the inhibition percentage of DENV2 infectivity was calculated as follows: 1-(percentage of NS4B positivity in treated cells/percentage of NS4B positivity in mock-treated cells). *** p < 0.001 compared with the other two antiviral action modes.
The time-of-addition assays consisted of three modes including attachment treatment/removal, entry-treatment/removal, and post-entry treatment/removal modes. In the attachment-treatment/removal mode, Vero E6 cells monolayer in 6-well plate was placed at 4 °C for 2 h and incubated with the fresh-prepared mixture of DENV-2 (MOI = 0.005) with the active compound at indicated concentrations for 2 h at 4 °C, and then washed with phosphate-buffered saline (PBS). In the entry-treatment/removal mode, Vero E6 cells were simultaneously treated with the active compound and infected DENV-2 (MOI = 0.005) in 6-well plates, incubated for 1 h at 37 °C, and then washed with PBS. In the post-entry treatment/removal mode, the cells were infected with DENV-2 for 1 h at 37 °C, treated with the active compounds at indicated concentrations for 1 h at 37 °C, respectively, and then washed by PBS. After active compound removal (washout), the cells were incubated at 37 °C for 96 h, and then were analyzed by immunofluorescent and DAPI staining assay for determining the residual DENV-2 infectivity, as described above. The inhibitory activity of the transient treatment by active compounds on attachment, entry, and post-entry stages of DENV replication in vitro was determined based on the residual infectivity.

DENV1 and DENV2 = test: DENV infectivity inhibition, summary over DENV1 and DENV2 in Vero E6 and A549 cells; format: cell-based, Dengue virus; settings: Dengue virus, range over DENV1 and DENV2, Vero E6 and A549 cells; read-out: IC50 in DENV infectivity (range over assays)
Description: as §1, with “In the antiviral screening assay, each tested GL conjugate at 10 μM was used to survey the anti-DENV activity in Vero E6 cells using cytopathic effect (CPE) and infectivity reduction assays as described in our prior report.” left out, “[…],” for “Vero E6 cells were infected by DENV2 at an MOI of 0.005 and simultaneously treated 10 μM of indicated GL conjugate for 96 h,”

[7] = parameters: method as in earlier work; settings: mammals; cited from earlier work
[8] = Vero C1008, 10 μM compound, DENV2, Vero E6 cells, 96 h, read-out: CPE Reduction at 10 μM
[9] = 10 μM compound, DENV2, Vero E6 cells, 96 h

COC(=O)[C@H](Cc1ccc(O)cc1)NC(=O)[C@H]1O[C@@H](O[C@H]2[C@H](OC3CC[C@@]4(C)C(CC[C@]5(C)C4C(=O)C=C4C6C[C@@](C)(C(=O)O)CC[C@]6(C)CC[C@]45C)C3(C)C)O[C@H](C(=O)N[C@@H](Cc3ccc(O)cc3)C(=O)OC)[C@@H](O)[C@@H]2O)[C@H](O)[C@@H](O)[C@@H]1O (stereo partly drawn) [Compound 6, 3-O-{2-O-[N-(β-D-glucopyranosyluronoyl)-L-tyrosinemethyl ester]-N-(β-D-glucopyranosyluronoyl)-L-tyrosinemethyl ester}-(3β,20β)-11-oxo-30-noroleane-12-ene-30-oic acid]
inhibition at 10 µM (DENV2 [1]; [8]): 75 to 100%
IC50 (DENV2 [2]; Dengue virus, DENV2, Vero C1008, read-out: Inhibition of DENV2 Infectivity (IC50, μM), Vero E6 cells): 6 µM
inhibition at 10 µM (DENV2 [2]; Dengue virus): 94%
Selectivity Index (CC50/ IC50) (DENV2 [2]; Vero E6 cells): >16.7
IC50 (DENV2 [2]; Vero E6 cells, read-out: Inhibition of DENV2 Infectivity (IC50)): 5.98 ± 0.41 µM
CC50 at 96 h [3]: > 100 µM
CC50 at 96 h [4]: > 100 µM
Selectivity Index (CC50/ IC50) (DENV2 [5]): >1000
IC50 (DENV2 [5]; Dengue virus): < 100 nM
IC50 (DENV1): < 100 nM
Stage of DENV2 replication affected (attachment, entry, post-entry modes) (DENV2 [6]): predominantly impeded the post-entry stage
IC50 (DENV1 and DENV2): 0.1 to 5.98 µM

CC1(C)[C@@H](O[C@H]2O[C@H](C(=O)O)[C@@H](O)[C@H](O)[C@H]2O[C@@H]2O[C@H](C(=O)O)[C@@H](O)[C@H](O)[C@H]2O)CC[C@]2(C)[C@H]3C(=O)C=C4[C@@H]5C[C@@](C)(C(=O)O)CC[C@]5(C)CC[C@@]4(C)[C@]3(C)CC[C@@H]12 [Compound 1, Glycyrrhizic acid]
inhibition at 10 µM (DENV2 [1]; [8]): 50 to 75%
IC50 (DENV2 [2]; Dengue virus, DENV2, Vero C1008, Vero E6 cells, read-out: Inhibition of DENV2 Infectivity (IC50)): 8.1 ± 0.21 µM
inhibition at 10 µM (DENV2 [2]; Dengue virus): 70.5%
Selectivity Index (CC50/ IC50) (DENV2 [2]; Vero E6 cells): >12.3
CC50 at 96 h [3]: > 100 µM
LD50 [7]: 5000 mg/kg

COC(=O)[C@H](CCSC)NC(=O)[C@H]1O[C@@H](O[C@H]2[C@H](OC3CC[C@@]4(C)C(CC[C@]5(C)C4C(=O)C=C4C6C[C@@](C)(C(=O)O)CC[C@]6(C)CC[C@]45C)C3(C)C)O[C@H](C(=O)N[C@@H](CCSC)C(=O)OC)[C@@H](O)[C@@H]2O)[C@H](O)[C@@H](O)[C@@H]1O (stereo partly drawn) [Compound 8, 3-O-{2-O-[N-(β-D-Glucopyranosyluronoyl)-L-methioninemethyl ester]-N-(β-D-glucopyranosyluronoyl)-L-methioninemethyl ester}-(3β, 20β)-11-oxo-30-noroleane-12-ene-30-oic Acid]
inhibition at 10 µM (DENV2 [1]; [8]): 25 to 50%
inhibition at 10 µM (DENV2 [2]; Dengue virus): 51.6%

CC[C@H](C)[C@H](NC(=O)[C@H]1O[C@@H](O[C@H]2[C@H](OC3CC[C@@]4(C)C(CC[C@]5(C)C4C(=O)C=C4C6C[C@@](C)(C(=O)O)CC[C@]6(C)CC[C@]45C)C3(C)C)O[C@H](C(=O)N[C@H](C(=O)OC)[C@@H](C)CC)[C@@H](O)[C@@H]2O)[C@H](O)[C@@H](O)[C@@H]1O)C(=O)OC (stereo partly drawn) [Compound 4, 3-O-{2-O-[N-(β-D-Glucopyranosyluronoyl)-L-isoleucinemethyl ester]-N-(β-D-glucopyranosyluronoyl)-L-isoleucinemethyl ester}-(3β, 20β)-11-oxo-30-norolean-12-ene-30-oic Acid]
CPE Reduction at 10 μM (DENV2 [1]; [9]): −

CCOC(=O)CCNC(=O)[C@H]1O[C@@H](O[C@H]2[C@H](OC3CC[C@@]4(C)C(CC[C@]5(C)C4C(=O)C=C4C6C[C@@](C)(C(=O)O)CC[C@]6(C)CC[C@]45C)C3(C)C)O[C@H](C(=O)NCCC(=O)OCC)[C@@H](O)[C@@H]2O)[C@H](O)[C@@H](O)[C@@H]1O (stereo partly drawn) [Compound 15, 3-O-{2-O-[N-(β-D-Glucopyranosyluronoyl)-β-alanineethyl ester]-N-(β-D-glucopyranosyluronoyl)-β-alanineethyl ester}-(3β, 20β)-11-oxo-30-noroleane-12-ene-30-acid]
inhibition at 10 µM (DENV2 [1]; [8]): 25 to 50%
inhibition at 10 µM (DENV2 [2]; Dengue virus): 53.6%

COC(=O)[C@@H](NC(=O)[C@H]1O[C@@H](O[C@H]2[C@H](OC3CC[C@@]4(C)C(CC[C@]5(C)C4C(=O)C=C4C6C[C@@](C)(C(=O)O)CC[C@]6(C)CC[C@]45C)C3(C)C)O[C@H](C(=O)N[C@H](C(=O)OC)C(C)C)[C@@H](O)[C@@H]2O)[C@H](O)[C@@H](O)[C@@H]1O)C(C)C (stereo partly drawn) [Compound 2, 3-O-{2-O-[N-(β-D-Glucopyranosyluronoyl)-L-valinemethyl ester]-N-(β-D-glucopyranosyluronoyl)-L-valinemethyl ester}-(3β, 20β)-11-oxo-30-norolean-12-ene-30-oic Acid]
CPE Reduction at 10 μM (DENV2 [1]; [9]): −

CCOC(=O)[C@@H](Cc1ccccc1)NC(=O)CNC(=O)[C@H]1O[C@@H](O[C@H]2[C@H](OC3CC[C@@]4(C)C(CC[C@]5(C)C4C(=O)C=C4C6C[C@@](C)(C(=O)O)CC[C@]6(C)CC[C@]45C)C3(C)C)O[C@H](C(=O)NCC(=O)N[C@H](Cc3ccccc3)C(=O)OCC)[C@@H](O)[C@@H]2O)[C@H](O)[C@@H](O)[C@@H]1O (stereo partly drawn) [Compound 16, 3-O-{2-O-[N-(β-D-Glucopyranosyluronoyl)-glycyl-L-phenylalanineethyl ester]-N-(β-D-glucopyranosyluronoyl)-glycyl-L-phenylalanineethyl ester}-(3β,20β)-11-oxo-30-noroleane-12-ene-30-acid]
inhibition at 10 µM (DENV2 [1]; [8]): 50 to 75%
inhibition at 10 µM (DENV2 [2]; Dengue virus): 63.8%

COC(=O)[C@@H](Cc1ccc(O)cc1)NC(=O)[C@H]1O[C@@H](O[C@H]2[C@H](OC3CC[C@@]4(C)C(CC[C@]5(C)C4C(=O)C=C4C6C[C@@](C)(C(=O)O)CC[C@]6(C)CC[C@]45C)C3(C)C)O[C@H](C(=O)N[C@H](Cc3ccc(O)cc3)C(=O)OC)[C@@H](O)[C@@H]2O)[C@H](O)[C@@H](O)[C@@H]1O (stereo partly drawn) [Compound 7, 3-O-{2-O-[N-(β-D-Glucopyranosyluronoyl)-D-tyrosinemethyl ester]-N-(β-D-glucopyranosyluronoyl)-D-tyrosinemethyl ester}-(3β, 20β)-11-oxo-30-noroleane-12-ene-30-oic Acid]
inhibition at 10 µM (DENV2 [1]; DENV2, Vero C1008, read-out: CPE inhibition): 25 to 50%
inhibition at 10 µM (DENV2 [1]; [8]): 25 to 50%
inhibition at 10 µM (DENV2 [2]; Dengue virus): 51.7%
